Measurements taken from patent US10160748B2 (AbbVie Inc., priority 2015, dated 2018).

Each compound was assayed against TNFα trimer (Homo sapiens, UniProt P01375) (assay: TNFα FP Competitive Binding Assay). Conditions: FP binding assay; 20 nM TNFα trimer, 1 nM OregonGreen488 probe; read-out: TNF IC50.
Protocol: TNFα FP Competitive Binding Assay
• 1. Assay Buffer: Prepare 1× Assay Buffer (Water with 47 mM HEPES, 47 mM NaCl, 0.9 mM EDTA, 0.0071% Triton X-100) by adding 25 mL of 1 M HEPES, 5 mL of 5 M NaCl, 1 mL of 0.5 M EDTA, and 375 μL of a 10% Triton X-100 stock to a fresh 500 mL bottle of water. • 2. Assay Mixture: Prepare fresh Assay Mixture containing 20 nM TNFα trimer (60 nM protein) and 1 nM 2′,7′-difluoro-3′,6′-dihydroxy-N-(2-(2-(2-((4-(isoquinolin-8-yl)-3-(4-(isoquinolin-8-yl)phenethoxy)benzyl)oxy)ethoxy)ethoxy)ethyl)-3-oxo-3H-spiro[isobenzofuran-1,9′-xanthene]-5-carboxamide probe in 1× Assay Buffer. Compound Plate Preparation Manual 12-Point 1:3 Dilution Plates: (384 Well Polypropylene Plates)
Top concentration of compounds, 10 mM in DMSO, dispensed in rows A-O in columns 1 and 13. Compounds are serially diluted 1:3 with DMSO in columns 2-12 or 14-24 using a 16-channel Matrix pipettor. Plates stored at −20° C.
Discovery Preps 12-Point 1:3 Dilution Plates: (384 Well Assay Plates)
Top concentration, 5 mM in DMSO, of compounds placed in rows A-O in columns 1 and 13. Compounds are serially diluted 1:3 with DMSO in columns 2-12 or 14-24. Compound solutions are dispensed into replicate assay plates at 410 nL per well. Plates stored at 4° C.
TNFα FP Competitive Binding Assay Protocol
• 1. Compound plates warmed to rt. • 2. Fresh Assay Mixture is prepared. • 3. Assay Mixture (20 μL) is dispensed each well of 384 assay plates using a Thermo Multidrop Combi or 16-channel Matrix pipettor. If Manual 12-point 1:3 Dilution Plates are to be tested, Assay Mix is dispensed into empty plates. Discovery Preps 12-point 1:3 Dilution Plates already contain 410 nL compound solution in DMSO. • 4. For Manual 12-point 1:3 Dilution Plates, 0.7 μL is manually transferred using a 16-channel Matrix pipettor to replicate assay plates containing 20 μL Assay Mixture for a final top compound concentration of 338 μM (3.4% DMSO). • 5. For Discovery Preps 12-point 1:3 Dilution Plates, 20 μL Assay Mixture added the 410 nL compound solution already in the plates yields a final top compound concentration of 100 μM (2.0% DMSO). • 6. Background subtraction controls are wells P1-P8 containing only Assay Buffer. The low % inhibition controls are wells P9-P16 containing only Assay Mix. The high % inhibition are wells P17-P24 containing only 1 nM 2′,7′-difluoro-3′,6′-dihydroxy-N-(2-(2-(2-((4-(isoquinolin-8-yl)-3-(4-(isoquinolin-8-yl)phenethoxy)benzyl)oxy)ethoxy)ethoxy)ethyl)-3-oxo-3H-spiro[isobenzofuran-1,9′-xanthene]-5-carboxamide probe in 1× Assay Buffer. • 7. Plates are incubated at rt for 18-24 h in 37° C. incubator (CO2 is off). • 8. Prior to reading the assay, the plates are placed in a dark cabinet to equilibrate at rt for one hour. • 9. Background-subtracted fluorescence polarization (mP) is measured using a PerkinElmer Envision plate reader. • 10. Raw data is entered into Assay Explorer and dose-response curves are generated using a variable slope curve. Supplies, Materials, and Reagents

TNFα trimer, sequence (P01375 77-233 limits assumed): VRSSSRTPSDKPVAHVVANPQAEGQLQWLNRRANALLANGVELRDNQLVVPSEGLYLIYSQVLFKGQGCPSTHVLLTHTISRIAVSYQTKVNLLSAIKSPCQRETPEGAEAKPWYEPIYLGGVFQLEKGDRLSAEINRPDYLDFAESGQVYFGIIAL

| SMILES | IC50 [µM] |
| --- | --- |
| Cn1c(=O)c2ccc(-c3cnc(C(C)(C)O)nc3)cc2n1Cc1cc(NCc2cc[nH]n2)ccc1Cl [Example 43] | 1 to 10 |
| Cc1ccc(C(F)(F)F)c(Cn2c3cc(-c4cnc(N5CCN6C(=O)OC[C@H]6C5)nc4)ccc3c(=O)n2C)n1 [Example 19.4] | < 1 |
| C[C@@H]1CN(c2ncc(-c3ccc4c(=O)n(C)n([C@@H](C)c5c(F)cccc5F)c4c3)cn2)CCN1C(=O)CO (single isomer, unassigned) [Example 58] | < 1 |
| Cn1c(=O)c2ccc(-c3cnc(N4CCOCC4)nc3)cc2n1Cc1ccccc1 [Example 1.10] | 1 to 10 |
| Cn1c(=O)c2ccc(-c3cnc(C(C)(C)O)nc3)cc2n1Cc1cc(NC2CCCc3c[nH]nc32)ccc1Cl (stereo not shown) [Example 44, 1-(2-Chloro-5-((4,5,6,7-tetrahydro-1H-indazol-7-yl)amino)benzyl)-6-(2-(2-hydroxypropan-2-yl)pyrimidin-5-yl)-2-methyl-1H-indazol-3(2H)-one] | < 1 |
| O=c1c2ccc(-c3cnc(N4CCOCC4)nc3)cc2n(Cc2ccccc2OC(F)F)n1C1CC1 [Example 11, 2-Cyclopropyl-1-(2-(difluoromethoxy)benzyl)-6-(2-morpholinopyrimidin-5-yl)-1H-indazol-3(2H)-one] | 1 to 10 |
| COc1c(-c2cnc(N3CCN(C(=O)CO)[C@H](C)C3)nc2)ccc2c(=O)n(C)n(Cc3ccccc3OC(F)F)c12 [Example 70, (R)-1-(2-(Difluoromethoxy)benzyl)-6-(2-(4-(2-hydroxyacetyl)-3-methylpiperazin-1-yl)pyrimidin-5-yl)-7-methoxy-2-methyl-1H-indazol-3(2H)-one] | < 1 |
| Cn1c(=O)c2ccc(-c3cnc(N4CCOCC4)nc3)nc2n1Cc1ccccc1OC(F)F [Example 15, 1-(2-(Difluoromethoxy)benzyl)-2-methyl-6-(2-morpholinopyrimidin-5-yl)-1H-pyrazolo[3,4-b]pyridin-3(2H)-one] | 1 to 10 |
| Cn1c(=O)c2ccc(-c3cnc(C(C)(C)O)nc3)cc2n1Cc1cn(Cc2cccnc2)cc1C(F)(F)F [Example #127] | < 1 |
| Cn1c(=O)c2ccc(-c3cnc(N4CCOCC4)nc3)cc2n1Cc1cccc(OC(F)F)c1 [Example 1.2] | 1 to 10 |
| Cc1ccc(OC(F)F)c(Cn2c3cc(-c4cnc(N5CCN(C(=O)C6CCO6)[C@H](C)C5)nc4)ccc3c(=O)n2C)c1 (stereo partly shown) [Example 21.3] | < 1 |
| Cn1c(=O)c2ccc(-c3ccnc(OC4CCOCC4)c3)cc2n1Cc1ccccc1OC(F)F [Example 10.11] | < 1 |
| Cc1ccc(OC(F)F)c(Cn2c3cc(-c4cnc(C5(C)CCN(C)C5)nc4)ccc3c(=O)n2C)c1 (stereo not shown) [Example 88, 1-(2-(Difluoromethoxy)-5-methylbenzyl)-6-(2-(1,3-dimethylpyrrolidin-3-yl)pyrimidin-5-yl)-2-methyl-1H-indazol-3(2H)-one] | 1 to 10 |

The remaining lines, values ahead:

| IC50 [µM] | SMILES |
| --- | --- |
| < 1 | CC(=O)N1CCN(c2ncc(-c3ccc4c(=O)n(C)n(Cc5cc(COc6ccn[nH]6)ccc5OC(F)F)c4c3)cn2)C[C@H]1C [Example 102] |
| < 1 | Cc1ccc(Cl)c(Cn2c3nc(-c4cnc(C(C)(C)O)nc4C)ccc3c(=O)n2C)c1 [Example 99, 1-(2-Chloro-5-methylbenzyl)-6-(2-(2-hydroxypropan-2-yl)-4-methylpyrimidin-5-yl)-2-methyl-1,2-dihydro-3H-pyrazolo[3,4-b]pyridin-3-one] |
| > 10 | Cn1c(=O)c2ncc(-c3cnc(N4CCOCC4)nc3)cc2n1Cc1ccccc1OC(F)F [Example 14, 1-(2-(Difluoromethoxy)benzyl)-2-methyl-6-(2-morpholinopyrimidin-5-yl)-1H-pyrazolo[4,3-b]pyridin-3(2H)-one] |
| < 1 | Cc1ccc(OC(F)F)c(Cn2c3cc(-c4cnc(N5CCN(C(=O)CO)C[C@H]5C)nc4)ccc3c(=O)n2C)c1 [Example 22.4] |
| > 10 | Cn1c(=O)c2ccc(-c3nsc(N4CCOCC4)n3)cc2n1Cc1ccccc1OC(F)F [Example 10.5] |
| < 1 | CC(=O)N1CCN(c2ncc(-c3ccc4c(=O)n(C)n(Cc5cc(C)ccc5OC(F)F)c4c3)cn2)[C@H](C)C1 [Example 20.4] |
